The target of one assay is Human DDB1 (Homo sapiens (Human), UniProt Q16531). The assay is described as follows: Surface plasmon resonance (SPR) binding assay to immobilized His-DDB1. The following applies: SPR, steady state affinity model, 25° C.; read-out: Binding (DDB1 binder activities, Kd). As to the method: The binding affinities of heterobifunctional compounds to DDB1 were determined by SPR assay. Purified His-DDB1 proteins were immobilized on a CM5 sensor chip, and a dose range of compound solutions were injected in multi-cycle kinetic format. Data were fit to steady state model and gave equivalent dissociation constants (KD).
Sequence of Human DDB1 (Q16531 whole entry): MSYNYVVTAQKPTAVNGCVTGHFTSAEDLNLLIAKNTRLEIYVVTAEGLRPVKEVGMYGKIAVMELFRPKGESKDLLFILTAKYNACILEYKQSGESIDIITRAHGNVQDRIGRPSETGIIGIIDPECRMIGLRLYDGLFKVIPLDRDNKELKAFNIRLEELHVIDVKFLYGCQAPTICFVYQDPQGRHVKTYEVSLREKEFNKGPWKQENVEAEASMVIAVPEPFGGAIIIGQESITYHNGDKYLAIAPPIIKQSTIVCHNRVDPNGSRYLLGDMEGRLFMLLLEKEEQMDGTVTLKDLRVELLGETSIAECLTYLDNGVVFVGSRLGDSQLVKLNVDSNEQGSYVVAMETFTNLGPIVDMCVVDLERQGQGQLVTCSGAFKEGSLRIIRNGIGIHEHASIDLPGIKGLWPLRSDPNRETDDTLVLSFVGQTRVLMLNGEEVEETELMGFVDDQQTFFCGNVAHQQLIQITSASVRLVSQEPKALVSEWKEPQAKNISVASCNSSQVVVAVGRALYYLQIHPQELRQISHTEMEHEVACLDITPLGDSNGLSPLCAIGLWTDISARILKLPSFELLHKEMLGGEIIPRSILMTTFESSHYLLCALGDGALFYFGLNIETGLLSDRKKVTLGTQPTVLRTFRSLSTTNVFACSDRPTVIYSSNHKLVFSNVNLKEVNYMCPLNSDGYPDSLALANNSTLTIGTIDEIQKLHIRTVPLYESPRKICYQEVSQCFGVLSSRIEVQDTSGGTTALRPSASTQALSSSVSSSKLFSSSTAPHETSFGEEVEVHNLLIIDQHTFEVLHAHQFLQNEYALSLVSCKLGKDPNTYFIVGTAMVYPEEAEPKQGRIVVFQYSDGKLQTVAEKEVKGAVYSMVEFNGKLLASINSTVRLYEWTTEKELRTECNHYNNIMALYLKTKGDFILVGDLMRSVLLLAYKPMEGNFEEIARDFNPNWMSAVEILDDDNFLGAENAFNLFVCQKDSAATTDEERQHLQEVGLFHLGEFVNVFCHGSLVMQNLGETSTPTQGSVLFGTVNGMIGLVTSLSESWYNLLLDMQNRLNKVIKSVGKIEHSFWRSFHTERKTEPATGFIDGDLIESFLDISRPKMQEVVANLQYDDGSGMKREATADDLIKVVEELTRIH
Protein Expression and Purification. Human DDB1 (UniPro: Q16531) coding sequences were cloned into pFastBacHTB vector and were expressed in High5 cells using Bac-to-Bac baculovirus expression system (Thermo Fisher Scientific). […] DDB1 proteins were obtained from supernatant of cell lysates and purified through sequential application of Ni affinity (Ni-NTA column. Bio-Rad), and size-exclusion (Superdex 200 16/600GL column, GE Healthcare) column chromatography.
Surface plasmon resonance (SPR) binding assay. All SPR studies were performed on a Biacore X100 plus or T200 instrument (GE Healthcare). Immobilization of purified His-DDB1 was carried out at 25° C. using a CM5 sensor chip. The surface was pre-equilibrated in HBS-EP running buffer (10 mM HEPES, pH7.4, 150 mM NaCl, 3 mM EDTA, 0.05% P20), then activated with EDC/NHS. His-DDB1 proteins were immobilized by amine coupling to a density of 11,000-13,000 resonance units (RUs) on flow cell FC2, whereas flow cell FC1 was used as reference. Both DDB1 immobilized and reference surfaces were deactivated with 1M ethanolamine.
All interaction experiments were performed at 25° C. […] Compound Solutions were injected individually in multi-cycle kinetic format without regeneration (flow rate […], association time 120 s, dissociation time 120 s). Sensorgrams from reference surfaces and blank injections were subtracted from the raw data (double-referencing) and the data was solvent-corrected prior to analysis. All data were fit to steady state affinity model using Biacore Evaluation Software and gave equivalent dissociation constants (KD).
The term Kd denotes a measure of binding affinity in units of concentration. Consider “2-Acetamido-3-butyramido-N-(5-nitrothiazol-2-yl)benzamide [B-146]”, for which the Kd was in the range of 20 to 100 µM. Still for that read-out and setting: the result for `CC(=O)Oc1ccccc1C(=O)Nc1ncc([N+](=O)[O-])s1` [B-1, 2-((5-nitrothiazol-2-yl)carbamoyl)phenylacetate] reads 20 to 100 µM. For `O=C(Nc1ncc([N+](=O)[O-])s1)c1ccccc1O` [B-2, 2-hydroxy-N-(5-nitrothiazol-2-yl)benzamide], the Kd lay within 20 to 100 µM. On the same count and under the same terms, the result for `O=C(Nc1ncc([N+](=O)[O-])s1)c1ccccc1` [B-3, N-(5-Nitrothiazol-2-yl)benzamide] reads 20 to 100 µM; that for `CC(=O)Nc1ccccc1C(=O)Nc1ncc([N+](=O)[O-])s1` [B-4, 2-Acetamido-N-(5-nitrothiazol-2-yl)benzamide], less than 20 µM. On to `CNC(=O)c1ccccc1C(=O)Nc1ncc([N+](=O)[O-])s1` [B-5, N^1-Methyl-N^2-(5-nitrothiazol-2-yl)phthalamide], for which the Kd was more than 100 µM. `CCNc1ccccc1C(=O)Nc1ncc([N+](=O)[O-])s1` [B-6]: the Kd was less than 20 µM. The same measure, in the same setting: with `CCOc1ccccc1C(=O)Nc1ncc([N+](=O)[O-])s1` [B-7, 2-Ethoxy-N-(5-nitrothiazol-2-yl)benzamide] the figure was less than 20 µM; with `CC(=O)Oc1ccccc1C(=O)N(C)c1ncc([N+](=O)[O-])s1` [B-8, 2-(Methyl(5-nitrothiazol-2-yl)carbamoyl)phenyl acetate], less than 20 µM; with `CC(=O)Oc1ccccc1C(=O)Nc1nc(C)c([N+](=O)[O-])s1` [B-9, 2-((4-Methyl-5-nitrothiazol-2-yl)carbamoyl)phenyl acetate], 20 to 100 µM. Same read-out and setting: with `O=C(Nc1ncc(Cl)s1)c1ccccc1O` [B-10] the figure was 20 to 100 µM; with `CCCNC(=O)c1cccc(C(=O)Nc2ncc([N+](=O)[O-])s2)c1OC(C)=O` [B-11, 2-((5-Nitrothiazol-2-yl)carbamoyl)-6-(propylcarbamoyl)phenyl acetate], 20 to 100 µM. In the case of `CCCNC(=O)c1ccc(OC(C)=O)c(C(=O)Nc2ncc([N+](=O)[O-])s2)c1` [B-13, 2-((5-Nitrothiazol-2-yl)carbamoyl)-4-(propylcarbamoyl)phenyl acetate], the dissociation constant Kd was 20 to 100 µM. As for `CCCNC(=O)c1cccc(OC(C)=O)c1C(=O)Nc1ncc([N+](=O)[O-])s1` [B-14, 2-((5-Nitrothiazol-2-yl)carbamoyl)-3-(propylcarbamoyl)phenyl acetate], the Kd lay within 20 to 100 µM.

As to `CCCNC(=O)c1cccc(C(=O)Nc2ncc([N+](=O)[O-])s2)c1O` [B-15, 2-hydroxy-N^1-(5-nitrothiazol-2-yl)-N^3-propylisophthalamide], the Kd is 20 to 100 µM. Turning to `CCCCNc1ccc(C(=O)Nc2ncc([N+](=O)[O-])s2)c(OC(C)=O)c1` [B-17, 5-(Butylamino)-2-((5-nitrothiazol-2-yl)carbamoyl)phenyl acetate], the Kd was less than 20 µM.

Regarding `CCCCNc1ccc(OC(C)=O)c(C(=O)Nc2ncc([N+](=O)[O-])s2)c1` [B-18, 4-(butylamino)-2-((5-nitrothiazol-2-yl)carbamoyl)phenylacetate], the Kd lay in the range of 20 to 100 µM.

Take `CCCCNc1cccc(OC(C)=O)c1C(=O)Nc1ncc([N+](=O)[O-])s1` [B-19, 3-(Butylamino)-2-((5-nitrothiazol-2-yl)carbamoyl)phenyl acetate]: the Kd fell in the range of 20 to 100 µM. Consider `CCCC(=O)Nc1ccc(C(=O)Nc2ncc([N+](=O)[O-])s2)c(OC(C)=O)c1` [B-21, 5-Butyramido-2-((5-nitrothiazol-2-yl)carbamoyl)phenyl acetate], for which the dissociation constant Kd is more than 100 µM.

On to `CCCC(=O)Nc1ccc(OC(C)=O)c(C(=O)Nc2ncc([N+](=O)[O-])s2)c1` [B-22, 4-Butyramido-2-((5-nitrothiazol-2-yl)carbamoyl)phenyl acetate], for which the dissociation constant (Kd) lay within 20 to 100 µM. On the same count and under the same terms, the result for `CCCC(=O)Nc1cccc(OC(C)=O)c1C(=O)Nc1ncc([N+](=O)[O-])s1` [B-23, 3-Butyramido-2-((5-nitrothiazol-2-yl)carbamoyl)phenyl acetate] reads 20 to 100 µM; that for `CCCC(=O)Nc1cccc(C(=O)Nc2ncc([N+](=O)[O-])s2)c1OC(=O)CCC` [B-24, 2-Butyramido-6-((5-nitrothiazol-2-yl)carbamoyl)phenyl butyrate], 20 to 100 µM; that for `CCCC(=O)Nc1cccc(OC(=O)CCC)c1C(=O)Nc1ncc([N+](=O)[O-])s1` [B-25, 3-Butyramido-2-((5-nitrothiazol-2-yl)carbamoyl)phenyl butyrate], 20 to 100 µM.

Consider `CC(=O)Nc1ccccc1C(=O)Nc1nc(C)c([N+](=O)[O-])s1` [B-27, 2-Acetamido-N-(4-methyl-5-nitrothiazol-2-yl)benzamide], for which the dissociation constant (Kd) fell in the range of 20 to 100 µM. Regarding `CC(=O)Nc1ccccc1C(=O)Nc1nc(Cl)c([N+](=O)[O-])s1` [B-29, 2-Acetamido-N-(4-chloro-5-nitrothiazol-2-yl)benzamide], the Kd lay in the range of 20 to 100 µM. Regarding `CC(=O)Nc1ccccc1C(=O)Nc1nc(Br)c([N+](=O)[O-])s1` [B-30, 2-acetamido-N-(4-bromo-5-nitrothiazol-2-yl)benzamide], the Kd lay in the range of 20 to 100 µM. Regarding `CC(=O)Nc1ccccc1C(=O)Nc1nc(C(F)(F)F)c([N+](=O)[O-])s1` [B-31, 2-Acetamido-N-(5-nitro-4-(trifluoromethyl)thiazol-2-yl)benzamide], the equilibrium dissociation constant (Kd) lay in the range of 20 to 100 µM. Same read-out and setting: the result for `CC(=O)Nc1ccccc1C(=O)Nc1nc(C2CC2)c([N+](=O)[O-])s1` [B-32, 2-Acetamido-N-(4-cyclopropyl-5-nitrothiazol-2-yl)benzamide] reads 20 to 100 µM; that for `CC(=O)Nc1ccccc1C(=O)Nc1nc(C(C)C)c([N+](=O)[O-])s1` [B-33, 2-Acetamido-N-(4-isopropyl-5-nitrothiazol-2-yl)benzamide], less than 20 µM. Still for that read-out and setting: with `CC(=O)Nc1ccccc1C(=O)Nc1nc(-c2ccccc2)c([N+](=O)[O-])s1` [B-34, 2-acetamido-N-(5-nitro-4-phenylthiazol-2-yl)benzamide] the figure was less than 20 µM; with `CC(=O)Nc1ccccc1C(=O)Nc1ncc(Cl)s1` [B-35, 2-Acetamido-N-(5-chlorothiazol-2-yl)benzamide], 20 to 100 µM. `CC(=O)Nc1ccccc1C(=O)Nc1ncc(F)s1` [B-36, 2-Acetamido-N-(5-fluorothiazol-2-yl)benzamide]: the Kd was 20 to 100 µM. Regarding `CC(=O)Nc1ccccc1C(=O)Nc1ncc(Br)s1` [B-37, 2-Acetamido-N-(5-bromothiazol-2-yl)benzamide], the equilibrium dissociation constant (Kd) was more than 100 µM. For `CC(=O)Nc1ccccc1C(=O)Nc1ncc(C(F)(F)F)s1` [B-38, 2-acetamido-N-(5-(trifluoromethyl)thiazol-2-yl)benzamide], the Kd is less than 20 µM. In the case of `CC(=O)Nc1ccccc1C(=O)Nc1ncc(C#N)s1` [B-39, 2-acetamido-N-(5-cyanothiazol-2-yl)benzamide], the Kd was in the range of 20 to 100 µM. Same read-out and setting: with `CC(=O)Nc1ccccc1C(=O)Nc1nc(C)c(Cl)s1` [B-40, 2-acetamido-N-(5-chloro-4-methylthiazol-2-yl)benzamide] the figure was 20 to 100 µM; with `CC(=O)Nc1ccccc1C(=O)Nc1nccs1` [B-41, 2-Acetamido-N-(thiazol-2-yl)benzamide], more than 100 µM.

The assay is the same for the next values; noted with them: read-out: Binding (DDB1 binder activities, Kd).
Take `CCCNC(=O)c1ccc(C(=O)Nc2ncc([N+](=O)[O-])s2)c(OC(C)=O)c1` [B-12, 2-((5-Nitrothiazol-2-yl)carbamoyl)-5-(propylcarbamoyl)phenyl acetate]: the Kd was less than 20 µM.
